Results from patent US7442855B2, “Insecticidal plant cyclotide with activity against Homopteran insects” (E. I. du Pont De Nemours and Company, priority 2004, dated 2008).
Where a SMILES comes first, the peptide text is derived from it. Bridges are numbered along the chain shown (N, C = ends).

Experiments:
Aphis glycines = assay: Dose response insect-feeding assay for E5 against Aphis glycines (sucrose/parafilm membrane, mortality scored after 72 hours); type: in vivo; conditions: adult insects, two replicates
Method: (§1) To test for the insecticidal activity of cyclotide E5 against the target homopteran pests, the lyophilized fractionated samples were placed in 96-well microtiter plates, resuspended in H2O and added to a 20% sucrose solution as detailed below. Parafilm was stretched to just short of its breaking point and used to seal the sucrose/sample reservoir. Adult insects were then added on top of the membrane in a second chamber such that the base of the insect enclosure was the parafilm membrane. The top of the insect chamber was then sealed with plastic wrap and punctured for air exchange. The number of insects feeding from each well was determined. The assay was scored after 72 hours and nsecticidal activity was measured based on insect mortality.
(§2) Specifically, for the dose-response assay results shown in Tables 1 and 2, lyophilized RP-HPLC-pure sample was resuspended in 300 μL H2O and added to 20% sucrose in the following volumes: 60, 45, 25, 10, and 5 μL. Two replicates per dose were prepared, including two negative controls. After 72 hours, the wells were scored for insect mortality.

Peregrinus maidis = assay: Dose response insect-feeding assay for E5 against Peregrinus maidis (sucrose/parafilm membrane, mortality scored after 72 hours); type: in vivo; conditions: adult insects, two replicates
Method: as §1, §2

SMILES: CC[C@H](C)[C@@H]1NC(=O)[C@H](Cc2ccc(O)cc2)NC(=O)[C@H](C(C)C)NC(=O)[C@@H]2CSSC[C@@H]3NC(=O)[C@H](CCCCN)NC(=O)[C@@H]4CSSC[C@H](NC(=O)[C@@H]5CCCN5C(=O)[C@H]([C@@H](C)CC)NC(=O)[C@H](CCCCN)NC(=O)[C@H](CC(N)=O)NC(=O)[C@H](Cc5ccc(O)cc5)NC(=O)[C@H](CSSC[C@H](NC(=O)CNC1=O)C(=O)N[C@@H]([C@@H](C)O)C(=O)N[C@@H](CC(C)C)C(=O)N[C@@H]([C@@H](C)O)C(=O)N[C@@H](C)C(=O)N[C@@H](CC(C)C)C(=O)N[C@@H](C)C(=O)NCC(=O)N4)NC(=O)[C@H](C(C)C)NC(=O)[C@H](CCCCN)NC(=O)[C@H](CC(N)=O)NC(=O)[C@H](CCCCN)NC3=O)C(=O)NCC(=O)N[C@@H](CCC(=O)O)C(=O)N[C@@H](CO)C(=O)N2 [E5] (cyclo(AGCKCKNKVCYNKIPCGESCVYIGCTLTAL); disulfide 3-16, 5-20, 10-25 (inferred); ring closure inferred)
- average percent (%) insect mortality (Aphis glycines; E5 concentration 6.36 μM (5 μL)): 56.5%
- average percent (%) insect mortality (Aphis glycines; E5 concentration 12.73 μM (10 μL)): 80%
- average percent (%) insect mortality (Aphis glycines; E5 concentration 31.81 μM (25 μL)): 75%
- average percent (%) insect mortality (Aphis glycines; E5 concentration 57.26 μM (45 μL)): 95%
- average percent (%) insect mortality (Aphis glycines; E5 concentration 76.35 μM (60 μL)): 100%
- average percent (%) insect mortality (Peregrinus maidis; E5 concentration 2.73 μM (5 μL)): 90%
- average percent (%) insect mortality (Peregrinus maidis; E5 concentration 4.09 μM (10 μL)): 90%
- average percent (%) insect mortality (Peregrinus maidis; E5 concentration 9.97 μM (25 μL)): 95%
- average percent (%) insect mortality (Peregrinus maidis; E5 concentration 16.61 μM (45 μL)): 100%
- average percent (%) insect mortality (Peregrinus maidis; E5 concentration 33.22 μM (60 μL)): 100%
